Measurements reported in patent US12421249B2, “Inhibitors of APOL1 and methods of using same” (Vertex Pharmaceuticals Incorporated, priority 2020, dated 2025).

Tests used:
APOL1 G1 = target: T1, APOL1 G1 (Homo sapiens, UniProt O14791, I384M/S342G); assay: Trypanosoma brucei brucei Lysis Assay Using APOL1 Recombinant Protein (AlamarBlue viability readout); assay type: cell-based; conditions: Trypanosome Assay; for IC50: IP50 = IC50 for cell proliferation, read-out: Trypanosome Assay IP50; for Emax: read-out: Trypanosome Assay Max Activity (%)
T1 sequence (O14791 28-398 S342G/I384M): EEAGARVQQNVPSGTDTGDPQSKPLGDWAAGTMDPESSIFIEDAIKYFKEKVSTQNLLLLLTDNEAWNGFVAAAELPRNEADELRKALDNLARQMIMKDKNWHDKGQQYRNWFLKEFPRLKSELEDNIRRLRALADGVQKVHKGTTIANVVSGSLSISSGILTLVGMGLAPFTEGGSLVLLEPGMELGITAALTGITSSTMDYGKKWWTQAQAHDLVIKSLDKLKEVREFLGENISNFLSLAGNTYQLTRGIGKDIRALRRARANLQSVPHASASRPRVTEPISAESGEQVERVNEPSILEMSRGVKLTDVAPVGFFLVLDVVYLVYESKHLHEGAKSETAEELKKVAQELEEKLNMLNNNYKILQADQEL
Description: Trypanosoma brucei brucei is a blood stream parasite to which human, gorillas, and baboons are immune due to the presence of the APOL1 protein in their HDL particles. The protein is uptaken by the parasite via the TbHpHb receptor located in its flagellar pocket and is bonded by the Hpr protein contained in the HDL particles which triggers the receptor endocytosis by the parasite.
Following endocytosis, the formed vesicle containing the HDL particle matures from early to late endosome, and subsequently to lysosome. The concomitant pH change in the lumen of the vesicle triggers the insertion of the APOL1 protein into the membrane of the late endosome/lysosome and hereby triggers lysosomal membrane permeabilization and as a further downstream event, trypanosome lysis. Trypanosoma brucei brucei is sensitive to lysis by all three APOL1 variants (G0, G1, and G2).
The Trypanosoma brucei brucei lysis assay is a lysis assay of the parasite using recombinant APOL1 protein variant followed by a fluorescent detection method of viability by the addition of AlamarBlue reagent to the assay well, a general metabolic redox indicator (AlamarBlue assay).
Briefly, the AlamarBlue active compound, resazurin, a blue, water soluble, non-toxic and cell permeable molecule, which can be followed by absorbance, is reduced by various metabolic pathways into resorufin, a red compound which can be followed by either absorbance or fluorescence. The assay allows the calculation of the percent viability (percent of living Trypanosomes remaining in each well) at the end of a lysis relative to the untreated condition by interpolation of fluorescent values (FLU) on a standard curve with a known amount of seeded trypanosome/well.
Trypanosoma brucei brucei (ATCC, Cat. No. PRA-382)
• Lister 427 VSG 221 bloodstream form.
Equipment • E1-Clip Tip pipette 12 channel adjustable 2-125 μL, Cat. No. 4672070BT • ThermoFisher MultiDrop 384, Cat. No. 5840300 • Multidrop • Agilent Bravo, Cat. No. G5409A • Bravo • SpectraMax M5 Assay Ready Plates (ARPs) • ARPs comes in two formats: • […] final top concentration with a 2.5 fold dilution down. • […] final top concentration with a 3 fold dilution down. • Both have a 10 point Dose response. • 0.1% DMSO final in the Black Assay Plate. • Compounds are diluted 1000 fold in the Black Assay Plate. • Each plate is designed for 14 compounds in duplicate. • In the final Black Assay Plate: • Column 1: Media only (no APOL1) (100% viable) • Column 2-23: 0.05 μg/mL APOL1 (˜EC90) (10% viable with APOL1) • Column 24: 0.1 μg/mL APOL1 (EC100) (Approx. […] Step 2, Day 4 • Centrifuge at 800×g for 5 minutes at room temperature. • Resuspend in 1 mL media. • Make a 1:25 fold dilution (10 μL/240 μL media). • Count on a hemocytometer (after adding parasites). • Let sit for 1-2 minutes for the parasites to settle. • Count should be approximately 100 viable motile parasites/16 grid or approximately 25×10^6 parasites/flask. • Passage the parasites by adding 1×10^6 parasites/T75 flask in 20 mL media. • Passage the parasites by adding 2.33×10^6 parasites/T175 flask in 46.6 mL media. • For every T75 flask should make enough for approximately 1.5×384 well assay plates. • For every T175 flask should make enough for approximately 3.8×384 well assay plates. Step 3, Day 6 • Centrifuge at 800×g for 5 minutes. • Resuspend in 3 mL assay media (No phenol red, no FBS) per 75 starting flask. • Resuspend in 7 mL assay media (No phenol red, no FBS) per 175 flask • Make a 1:25 fold dilution. • Count by hemocytometer. • Every T75 flask set up should have approximately 75×10^6 parasites/flask (verify doubling time=8.7 hours±1 hour). • Every T175 flask set up should have approximately 175×10^6 parasites/flask (verify doubling time=8.7 hours±1 hour). • Require 46×10^6 parasites per 384 well plate (at 120,000 parasites per well). […]

APOL1 = target: T2, APOL1 (Homo sapiens, UniProt O14791); assay: Multi-Tox Assay (MultiTox-Fluor Multiplex Cytotoxicity Assay in tet-inducible APOL1 T-REx-HEK293 cells; Table 46 does not say which APOL1 variant G0/G1/G2); assay type: cell-based; conditions: APOL1 variant not given; for IC50: IP50 = IC50 for cell proliferation
T2 sequence (O14791 1-398 S342G/I384M): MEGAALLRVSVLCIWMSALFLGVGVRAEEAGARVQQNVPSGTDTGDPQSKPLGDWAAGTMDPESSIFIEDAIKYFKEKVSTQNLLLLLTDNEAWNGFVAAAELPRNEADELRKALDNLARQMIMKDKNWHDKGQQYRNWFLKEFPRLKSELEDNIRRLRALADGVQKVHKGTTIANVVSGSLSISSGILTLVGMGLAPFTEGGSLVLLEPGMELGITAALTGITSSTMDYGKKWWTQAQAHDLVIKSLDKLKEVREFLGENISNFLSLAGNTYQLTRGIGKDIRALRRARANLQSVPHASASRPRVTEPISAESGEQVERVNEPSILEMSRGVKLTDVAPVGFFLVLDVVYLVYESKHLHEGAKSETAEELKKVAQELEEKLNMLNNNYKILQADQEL

Compound | IC50 (APOL1 G1) [nM] | Emax (APOL1 G1) [%] | Multi-Tox Assay Max Activity (%) (APOL1) | IC50 (APOL1) [nM] | IC90 (APOL1) [nM]
COc1ccc([C@@H]2C[C@]3(C[C@H](C)N2)OCCc2cc(Cl)sc23)c(F)c1 (racemic) [Compound 44] | < 50 | 106 | 99.5 | < 50 | 
C[C@H]1C[C@@]2(C[C@@H](c3ccc(C(N)=O)cc3)N1)OCCc1cc(Cl)sc12 (racemic) [Compound 47] | < 50 |  |  | < 50 | 
Cc1n[nH]c2ncc([C@@H]3C[C@]4(C[C@H](C)N3)OCCc3cc(Cl)sc34)cc12 (racemic) [Compound 48] | < 50 | 102 | 99.0 | < 50 | 
COc1ccc([C@@H]2C[C@]3(C[C@H](C)N2)OCCc2cc(Cl)sc23)cn1 (racemic) [Compound 49] | < 50 | 104 |  | < 50 | 
CC(=O)Nc1ccc([C@@H]2C[C@]3(C[C@H](C)N2)OCCc2cc(Cl)sc23)cc1 (racemic) [Compound 50] | < 50 | 103 | 99.7 | < 50 | 
C[C@H]1C[C@@]2(C[C@@H](c3cnc(C4CC4)nc3)N1)OCCc1cc(Cl)sc12 (racemic) [Compound 52] | < 50 | 104 | 99.7 | < 50 | 
C[C@H]1C[C@@]2(C[C@@H](c3cccc(C#N)n3)N1)OCCc1cc(Cl)sc12 (racemic) [Compound 53] | 50 to 500 | 106 | 99.3 | < 50 | 
C[C@H]1C[C@@]2(C[C@@H](c3ccc4c(c3)NC(=O)CO4)N1)OCCc1cc(Cl)sc12 (racemic) [Compound 54] | < 50 | 102 | 100.0 | < 50 | < 50
Cc1ccc([C@@H]2C[C@]3(C[C@H](C)N2)OCCc2cc(Cl)sc23)cn1 (racemic) [Compound 55] | < 50 | 112 | 99.7 | < 50 | 
C[C@H]1C[C@@]2(C[C@@H](c3cnn(CCO)c3)N1)OCCc1cc(Cl)sc12 (racemic) [Compound 56] | < 50 | 116 | 99.8 | < 50 | 
C[C@H]1C[C@@]2(C[C@@H](c3cnc(N)nc3)N1)OCCc1cc(Cl)sc12 (racemic) [Compound 57] | < 50 | 105 | 99.7 | < 50 | 
Cc1ccc([C@@H]2C[C@]3(C[C@H](C)N2)OCCc2cc(Cl)sc23)nn1 (racemic) [Compound 58] | < 50 | 100 | 99.7 | < 50 | 
C[C@H]1C[C@@]2(C[C@@H](c3ccc(O)cn3)N1)OCCc1cc(Cl)sc12 (racemic) [Compound 59] | < 50 | 116 | 99.3 | < 50 | 
CNc1ncc([C@@H]2C[C@]3(C[C@H](C)N2)OCCc2cc(Cl)sc23)cn1 (racemic) [Compound 60] | < 50 | 102 | 99.7 | < 50 | 
COc1ccc([C@@H]2C[C@]3(C[C@H](C)N2)OCCc2cc(Cl)sc23)cc1C#N (racemic) [Compound 62] | < 50 | 95 |  | < 50 | 
C[C@H]1C[C@@]2(C[C@@H](c3cnc(C(N)=O)cn3)N1)OCCc1cc(Cl)sc12 (racemic) [Compound 63] | < 50 | 104 |  | < 50 | 
Cc1cncc([C@@H]2C[C@]3(C[C@H](C)N2)OCCc2cc(Cl)sc23)c1 (racemic) [Compound 64] | < 50 |  |  | < 50 | 
C[C@H]1C[C@@]2(C[C@@H](c3cnn(-c4ccccc4)c3)N1)OCCc1cc(Cl)sc12 (racemic) [Compound 65] | < 50 | 105 |  | < 50 | 
Cc1cc([C@@H]2C[C@]3(C[C@H](C)N2)OCCc2cc(Cl)sc23)on1 (racemic) [Compound 66] | < 50 | 103 |  | < 50 | 
C[C@H]1C[C@@]2(C[C@@H](c3ccc4cn[nH]c4c3)N1)OCCc1cc(Cl)sc12 (racemic) [Compound 67] | < 50 | 105 |  | < 50 | 
C[C@H]1C[C@@]2(C[C@@H](c3ccc(O)nc3)N1)OCCc1cc(Cl)sc12 (racemic) [Compound 68] | < 50 | 106 |  | < 50 | 
CCOc1ccc([C@@H]2C[C@]3(C[C@H](C)N2)OCCc2cc(Cl)sc23)nc1 (racemic) [Compound 69] | < 50 | 110 |  | < 50 | 
C[C@H]1C[C@@]2(C[C@@H](c3cnc(-c4ccccc4)o3)N1)OCCc1cc(Cl)sc12 (racemic) [Compound 70] | < 50 | 104 |  | < 50 | 
C[C@H]1C[C@@]2(C[C@@H](c3ccc(C(=O)NC4CC4)cc3)N1)OCCc1cc(Cl)sc12 (racemic) [Compound 71] | < 50 | 104 |  | < 50 | 
C[C@H]1C[C@@]2(C[C@@H](c3c[nH]nn3)N1)OCCc1cc(Cl)sc12 (racemic) [Compound 72] | < 50 | 118 |  | < 50 | 
Cc1cc([C@@H]2C[C@]3(C[C@H](C)N2)OCCc2cc(Cl)sc23)[nH]n1 (racemic) [Compound 73] | < 50 | 110 |  | < 50 | 
C[C@H]1C[C@@]2(C[C@@H](c3cn4c(n3)COCC4)N1)OCCc1cc(Cl)sc12 (racemic) [Compound 74] | 50 to 500 | 110 |  | < 50 | 
C[C@H]1C[C@@]2(C[C@@H](c3cnc(N(C)C)nc3)N1)OCCc1cc(Cl)sc12 (racemic) [Compound 75] | < 50 | 105 |  | < 50 | 
Cc1ccc([C@@H]2C[C@]3(C[C@H](C)N2)OCCc2cc(Cl)sc23)nc1 (racemic) [Compound 77] | < 50 | 110 |  | < 50 | 
